Values quoted from earlier work, collected in patent US20020031490A1, “Method for preparing resinates” (priority 2000, published 2002).

solubility of indomethacin in water: 14 ppm
SMILES: COc1ccc2c(c1)c(CC(=O)O)c(C)n2C(=O)c1ccc(Cl)cc1 [indomethacin]
